The test system of test [1] is homozygous mutant lettuce plant (Lactuca sativa), having a mutated version of the OPR3 gene. Nature of the test: Reversal of male sterility in homozygous OPR3 mutant lettuce by spraying young flower buds. In kind it is in vivo. As to conditions: for restoration of male fertility in the F2 generation: F2 of cross of NCIMB 42060 plants with wild type lettuce, treatment as in Example 1; for seed production through selfing: 200 μM spray on inflorescences from early bolting stage, versus mock-treated controls (FIG. 1). The source says:
A mutant lettuce plant (Lactuca sativa), having a mutated version of the OPR3 gene, was obtained by means of chemical mutagenesis and subsequent TILLING screening of about 3,000 M2 plants.
Phenotypically this mutant lettuce plant was indistinguishable from wild type lettuce plants, when the mutation was present in a heterozygous state. […] The few pollen grains that developed in such homozygous mutants were not functional.
From the early bolting stage the inflorescences were sprayed 5 times per week, for a total of 3 weeks.

Test [2] has as its system homozygous mutant endive plant (Cichorium endivia), having a mutated version of the OPR3 gene. Put plainly: Reversal of male sterility in homozygous OPR3 mutant endive by treating young flower buds. In kind it is in vivo. The note with it: for restoration of male fertility in the F2 generation: F2 of cross of endive plants of the invention with wild type endive, treatment as in Example 3; for male fertility (functional pollen, seed set through self-pollination): homozygous mutants, controls remained male sterile; for male fertility (functional pollen, seed set through self-pollination) / flower colour of flowers developed from treated buds: 200 μM (0.2 mM) with 0.025% Zipper surfactant sprayed daily on young flower buds; for flower colour of flowers developed from treated buds: homozygous mutants (pale flowers untreated), about 3.5 months. The text has this:
A mutant endive plant (Cichorium endivia), having a mutated version of the OPR3 gene, was obtained by means of chemical mutagenesis and subsequent TILLING screening of about 10,000 M2 plants.
Phenotypically this mutant endive plant was indistinguishable from wild type endive plants, when the mutation was present in a heterozygous state. […] The pollen grains that developed in such homozygous mutants were unable to germinate and therefore dysfunctional.
Blue was the wild type flower colour in this endive background.

In test [3] the test system is Arabidopsis thaliana with mutations in the OPR3 gene. As to conditions: Arabidopsis OPR3 mutants, flower buds treated; cited from earlier work.

Entries after “also recorded” stand apart in the source; their conditions may differ.

Take `CC/C=C\C[C@H]1C(=O)CC[C@@H]1CC(=O)O` [jasmonic acid, (3R,7S)-jasmonic acid]: in test [1], the “restoration of male fertility in the F2 generation” value (from here on “restoration … in the F2 generation”) is listed as “sufficient to restore male fertility”. Also, in test [2], the “restoration … in the F2 generation” value was “sufficient to restore male fertility” and the “male fertility (functional pollen, seed set through self-pollination)” value was “had the same effect”.

Regarding `CC/C=C\CC1C(=O)CCC1CC(=O)OC` (centres unmarked) [methyl jasmonate], the “restoration … in the F2 generation” value in test [1] and in test [2] was “sufficient to restore male fertility” each time. Further, the “restoration of male fertility” value in test [1] (homozygous mutants, 200 μM (0.2 mM) aqueous solution plus 0.025% Zipper surfactant sprayed on young flower buds, 5 times per week for 3 weeks) is listed as “sufficient to restore male fertility”; in test [3], “could be restored”. Besides, the “seed production through selfing” value in test [1] (homozygous mutants) was “has produced seeds through selfing”; in test [1] (homozygous mutants, listed as MeJA), “produced seeds in a subset of their flowers”. Moreover, the “flower colour of flowers developed from treated buds” value is given as “Its colour has changed to blue” in test [2] and “developed into blue flowers” in test [2] (listed as MeJA). Also, the “male fertility (functional pollen, seed set through self-pollination)” value in test [2] was “it has become male-fertile”; in test [2] (listed as MeJA), “produced viable, functional pollen and were able to set seed through self-pollination; also recorded: could be overcome”. Also, the “effect of other application methods than spraying” value in test [2] (solution painted onto the surface of young flower buds with a fine brush) is “comparable effects”.

The values are drawn from US10724044B2, “Reversible genic male sterility in compositae” (priority 2013, dated 2020).
